In the NIST ThermoML archive (doi:10.1021/acs.jced.7b00840):
± gives the expanded uncertainty stated by the source.

Settings: Crystal; visual observation

Triple point temperature [K] | Compound
325.7 ± 1.2 | Nc1ccccc1I [2-iodoaniline]
332.35 ± 0.87 | Nc1ccc(I)cc1 [4-iodoaniline]
